What all share (type): functional, Homo sapiens
Common to all, as to settings: Homo sapiens, Concentration 10 uM; read-out: Cell Viability

Assay [1] relates to Colon cancer organoid. The assay is described as follows: Targeting of F14 CAF-induced therapy resistance in O23 CRC organoid-stroma co-culture. Cell viability is reported with Gefitinib.
Assay [2] concerns Colon cancer organoid. The experiment in a line: Targeting of F14 CAF-induced therapy resistance in O23 CRC organoid-stroma co-culture. Cell viability is reported without Gefitinib.
The subject of assay [3] is Colon cancer organoid. The assay is described as follows: Targeting of F14 CAF-induced therapy resistance in O23 CRC organoid-stroma co-culture. Cell viability is reported with SN-38.
Assay [4] deals with Colon cancer organoid. The experiment in a line: Targeting of F14 CAF-induced therapy resistance in O14 CRC organoid-stroma co-culture. Cell viability is reported without Gefitinib.
Assay [5] deals with Colon cancer organoid. The assay is described as follows: Targeting of F14 CAF-induced therapy resistance in O14 CRC organoid-stroma co-culture. Cell viability is reported with Gefitinib.

Turning to `c1ccc(N2CCN(Cc3nc4ccccc4[nH]3)CC2)nc1`, the viability – broadly, a read-out of living cells in per cent, often relative to untreated cells – at 10 µM amounted to 66.8% in the assay with Colon cancer organoid [1]; 163% in the assay with Colon cancer organoid [2]; 106% in the assay on Colon cancer organoid [3]; 134% with Colon cancer organoid [4]; 57.8% in the assay on Colon cancer organoid [5].

Turning to `O=C(Nc1cccnn1)N1CCC(=Cc2cccc(Oc3ccc(C(F)(F)F)cn3)c2)CC1`, the viability at 10 µM in the assay on Colon cancer organoid [1] was found to be 54.6%; with Colon cancer organoid [2], 114%; in the assay with Colon cancer organoid [3], 105%; in the assay with Colon cancer organoid [4] it was 94%; with Colon cancer organoid [5] it was 37.7%.

For `COc1cc2c(cc1-c1c(C)noc1C)ncc1[nH]c(=O)n([C@H](C)c3ccccn3)c12`, the viability at 10 µM in the assay with Colon cancer organoid [1] turned out to be 78.1%; in the assay with Colon cancer organoid [2] it was 143%; with Colon cancer organoid [3], 91.5%; in the assay with Colon cancer organoid [4] it was 30.2%; with Colon cancer organoid [5], 9.93%.

Take `COc1ccc(Cn2ccc3ccc(C(=O)NO)cc32)cc1`: the viability at 10 µM in the assay on Colon cancer organoid [1] is 89.4%; in the assay on Colon cancer organoid [2], 126%; in the assay with Colon cancer organoid [3] it was 94.6%; with Colon cancer organoid [4], 75.4%; with Colon cancer organoid [5], 52.8%.

As for `CCCc1cc(C)[nH]c(=O)c1CNC(=O)c1cc(-c2ccnc(N3CCN(C)CC3)c2)cc2c1cnn2C(C)C`, the viability at 10 µM in the assay with Colon cancer organoid [1] was determined as 74.3%; in the assay with Colon cancer organoid [2], 119%; in the assay with Colon cancer organoid [3] it was 94.5%; in the assay with Colon cancer organoid [4] it was 73%; in the assay with Colon cancer organoid [5] it was 63.9%.

In the case of `O=C(c1ccc(C(=O)N2CCC(N3CCCC3)CC2)c(Nc2ccccc2)c1)N1CCC(N2CCCC2)CC1`, the viability at 10 µM was determined as 57.4% with Colon cancer organoid [1]; 122% in the assay with Colon cancer organoid [2]; 67.2% in the assay on Colon cancer organoid [3]; 121% in the assay on Colon cancer organoid [4]; 47.7% with Colon cancer organoid [5].

Take `COc1cc2c(NC3CCN(C(C)C)CC3)nc(N3CCC(F)(F)CC3)nc2cc1OCCCN1CCCC1`: the viability at 10 µM in the assay with Colon cancer organoid [1] worked out at 62.4%; in the assay with Colon cancer organoid [2], 107%; with Colon cancer organoid [3] it was 91.7%; in the assay with Colon cancer organoid [4], 71.2%; in the assay on Colon cancer organoid [5], 56.9%.

As for `CC(C)N(CCCNC(=O)Nc1ccc(C(C)(C)C)cc1)C[C@H]1O[C@@H](n2cc(Br)c3c(N)ncnc32)[C@H](O)[C@@H]1O`, the viability at 10 µM with Colon cancer organoid [1] is 34%; in the assay on Colon cancer organoid [2] it was 41.3%; in the assay with Colon cancer organoid [3], 19.8%; in the assay on Colon cancer organoid [4] it was 69.6%; with Colon cancer organoid [5] it was 45.4%.

On to `COc1cc2c(cc1OCCCN1CCCC1)N=C(N)C21CCC1`, for which the viability at 10 µM in the assay on Colon cancer organoid [1] worked out at 55.4%; in the assay with Colon cancer organoid [2] it was 122%; with Colon cancer organoid [3] it was 76.1%; in the assay with Colon cancer organoid [4], 82.9%; in the assay on Colon cancer organoid [5] it was 46.9%.

With `CCOC(=O)CCNc1cc(N2CCc3ccccc3CC2)nc(-c2ccccn2)n1`, the viability at 10 µM with Colon cancer organoid [1] worked out at 59.2%; in the assay with Colon cancer organoid [2] it was 155%; in the assay on Colon cancer organoid [3], 121%; in the assay on Colon cancer organoid [4], 93.3%; with Colon cancer organoid [5], 59.5%.

`CCCc1cc(C)[nH]c(=O)c1CNC(=O)c1cc(-c2ccc(N3CCN(C(C)C)CC3)nc2)cc2c1cnn2C(C)C`: the viability at 10 µM was 68.8% with Colon cancer organoid [1]; 152% in the assay with Colon cancer organoid [2]; 102% in the assay with Colon cancer organoid [3]; 95.6% in the assay with Colon cancer organoid [4]; 77.8% with Colon cancer organoid [5].

`CCCOc1ccn2c(C(C)=O)cc(-c3cccc(OC)c3)c2c1`: the viability at 10 µM with Colon cancer organoid [1] stood at 74.1%; in the assay on Colon cancer organoid [2], 112%; in the assay on Colon cancer organoid [3], 92.8%; in the assay on Colon cancer organoid [4], 113%; in the assay with Colon cancer organoid [5], 64.8%.

Take `Clc1cccc(-c2nnnn2Cc2cccnc2)c1Cl`: the viability at 10 µM in the assay on Colon cancer organoid [1] came to 47.8%; in the assay with Colon cancer organoid [2], 106%; in the assay with Colon cancer organoid [3], 77.1%; in the assay on Colon cancer organoid [4], 127%; with Colon cancer organoid [5], 60.2%.

On to `CC(C)Oc1ccc(-c2c[nH]cc2CN(C)CCN)cc1`, for which the viability at 10 µM with Colon cancer organoid [1] stood at 47.4%; in the assay on Colon cancer organoid [2], 132%; with Colon cancer organoid [3], 77%; in the assay with Colon cancer organoid [4] it was 25.7%; with Colon cancer organoid [5], 31.6%.

On to `CNCCN1CCC(OCc2ccccc2)CC1`, for which the viability at 10 µM with Colon cancer organoid [1] was 59.5%; in the assay on Colon cancer organoid [2] it was 139%; in the assay with Colon cancer organoid [3], 69.2%; in the assay on Colon cancer organoid [4] it was 42.5%; in the assay with Colon cancer organoid [5] it was 43.9%.

For the compound `CN1C[C@H](Nc2cnn(C)c(=O)c2Br)C[C@H](c2ccccc2)C1`, the viability at 10 µM came out at 68.1% in the assay with Colon cancer organoid [1]; 143% with Colon cancer organoid [2]; 66.4% with Colon cancer organoid [3]; 84.6% in the assay with Colon cancer organoid [4]; 64.7% with Colon cancer organoid [5].

Turning to `O=C(NCC(=O)N1CCCC1)Nc1ccc2cnccc2c1`, the viability at 10 µM came out at 68.5% in the assay with Colon cancer organoid [1]; 179% in the assay with Colon cancer organoid [2]; 39% with Colon cancer organoid [3]; 83.8% in the assay on Colon cancer organoid [4]; 76.1% in the assay with Colon cancer organoid [5].

For `O=C1CCc2cc(Nc3cc(OC4CCOCC4)c([N+](=O)[O-])cc3Cl)ccc2N1`, the viability at 10 µM came to 57.9% in the assay with Colon cancer organoid [1]; 117% in the assay on Colon cancer organoid [2]; 60.5% in the assay with Colon cancer organoid [3]; 112% with Colon cancer organoid [4]; 75.9% with Colon cancer organoid [5].

Consider `Nc1ncnc2c1ccn2[C@@H]1O[C@H]([C@H](O)c2ccccc2)[C@@H](O)[C@H]1O`, for which the viability at 10 µM in the assay on Colon cancer organoid [1] was determined as 45%; in the assay with Colon cancer organoid [2] it was 97.6%; in the assay with Colon cancer organoid [3], 68.9%; in the assay with Colon cancer organoid [4] it was 14.9%; with Colon cancer organoid [5], 14.9%.

In the case of `c1ccc([C@@H]2C[C@H]2NC2CCNCC2)cc1`, the viability at 10 µM in the assay on Colon cancer organoid [1] is 68%; in the assay on Colon cancer organoid [2], 79.5%; in the assay on Colon cancer organoid [3], 68.3%; in the assay on Colon cancer organoid [4], 114%; in the assay on Colon cancer organoid [5] it was 58.2%.

With `Clc1cc2c(NC3CCCC3)nnc(-c3ccncc3)c2cc1Cl`, the viability at 10 µM is 72.9% with Colon cancer organoid [1]; 142% in the assay with Colon cancer organoid [2]; 114% in the assay on Colon cancer organoid [3]; 91.2% in the assay on Colon cancer organoid [4]; 65.8% with Colon cancer organoid [5].

On to `O=C(NC[C@H](O)CN1CCc2ccccc2C1)c1ccnc(NC2CCC2)c1`, for which the viability at 10 µM with Colon cancer organoid [1] was 43.2%; with Colon cancer organoid [2], 83.1%; in the assay on Colon cancer organoid [3], 50.6%; in the assay on Colon cancer organoid [4] it was 32.6%; in the assay on Colon cancer organoid [5] it was 31.9%.

For the compound `O=C(O)c1cc(-c2ccc(C3CCNCC3)cc2)c2ccc(-c3ccc(C(F)(F)F)cc3)cc2c1`, the viability at 10 µM stood at 47.6% with Colon cancer organoid [1]; 165% in the assay on Colon cancer organoid [2]; 60.3% with Colon cancer organoid [3]; 77% in the assay on Colon cancer organoid [4]; 34.4% in the assay on Colon cancer organoid [5].

On to `Cc1c(C(=O)O)cc(-c2ccc(C3CCNCC3)cc2)c2ccc(-c3ccc(C(F)(F)F)cc3)cc12`, for which the viability at 10 µM turned out to be 48.3% with Colon cancer organoid [1]; 143% in the assay with Colon cancer organoid [2]; 76.8% in the assay on Colon cancer organoid [3]; 64.2% in the assay on Colon cancer organoid [4]; 38.7% in the assay with Colon cancer organoid [5].

Regarding `C[C@@H](c1cccc(CN)c1)n1cc(Cl)cc(C(N)=O)c1=N`, the viability at 10 µM amounted to 51% in the assay with Colon cancer organoid [1]; 172% with Colon cancer organoid [2]; 99.7% in the assay with Colon cancer organoid [3]; 106% in the assay on Colon cancer organoid [4]; 33.4% in the assay on Colon cancer organoid [5].

Take `Cc1c(Nc2ccc(S(=O)(=O)N3CCN(C)CC3)cc2F)nc2ccc(Nc3cnn(C4CC4)c3)cn2c1=O`: the viability at 10 µM in the assay on Colon cancer organoid [1] stood at 115%; in the assay on Colon cancer organoid [2], 118%; with Colon cancer organoid [3], 71.2%; in the assay with Colon cancer organoid [4], 68.6%; with Colon cancer organoid [5], 53%.

Take `C[C@@H](c1cccc(C#N)c1)n1cc(Cl)cc(C(N)=O)c1=N`: the viability at 10 µM with Colon cancer organoid [1] is 49.6%; in the assay with Colon cancer organoid [2], 126%; in the assay on Colon cancer organoid [3], 62.2%; in the assay on Colon cancer organoid [4], 76.7%; with Colon cancer organoid [5] it was 34.3%.

Consider `O=C(Nc1cccnn1)N1CC(C/C=C/c2cncc(Oc3ccc(C(F)(F)F)cn3)n2)C1`, for which the viability at 10 µM in the assay with Colon cancer organoid [1] stood at 50.3%; in the assay on Colon cancer organoid [2], 132%; in the assay on Colon cancer organoid [3], 83.6%; in the assay with Colon cancer organoid [4] it was 93.5%; with Colon cancer organoid [5], 55.5%.

As for `Cc1c(Nc2ccc(S(=O)(=O)N3CCN(C)CC3)cc2F)nc2ccc(-c3cnn(C4CC4)c3)cn2c1=O`, the viability at 10 µM in the assay on Colon cancer organoid [1] came out at 88.9%; with Colon cancer organoid [2], 153%; with Colon cancer organoid [3], 85.7%; in the assay on Colon cancer organoid [4], 51.6%; with Colon cancer organoid [5], 69.8%.

Consider `CCOC(=O)CCNc1cc(N2CCc3ccccc3CC2)nc(-c2cccnc2)n1`, for which the viability at 10 µM in the assay with Colon cancer organoid [1] was 90.8%; in the assay with Colon cancer organoid [2], 140%; in the assay on Colon cancer organoid [3] it was 79.9%; with Colon cancer organoid [4] it was 60.1%; in the assay on Colon cancer organoid [5], 57.2%.

In the case of `O=C([C@@H](Cc1cccc(C(F)(F)F)c1)NS(=O)(=O)c1cc(F)c2c(c1)CCNC2)N1CCCC1`, the viability at 10 µM is 55.1% with Colon cancer organoid [1]; 81.5% in the assay with Colon cancer organoid [2]; 60.3% in the assay with Colon cancer organoid [3]; 114% in the assay with Colon cancer organoid [4]; 65% in the assay on Colon cancer organoid [5].

Take `COc1cc(OC)cc(-c2noc(N3CCN(C)C4(CCN(c5ccnc(C)c5)CC4)C3)n2)c1`: the viability at 10 µM is 74.2% with Colon cancer organoid [1]; 108% in the assay on Colon cancer organoid [2]; 101% with Colon cancer organoid [3]; 103% with Colon cancer organoid [4]; 49.2% with Colon cancer organoid [5].

As for `Cn1cncc1[C@](O)(COc1ccc(C#N)cc1-c1ccc(OC(F)(F)F)cc1)c1ccc(C#N)cc1`, the viability at 10 µM in the assay with Colon cancer organoid [1] was determined as 40.9%; in the assay on Colon cancer organoid [2] it was 75.6%; with Colon cancer organoid [3], 76.2%; in the assay on Colon cancer organoid [4], 47%; in the assay on Colon cancer organoid [5], 18.5%.

These data come from ChEMBL document CHEMBL5608113, “Targeting of CAF-induced therapy resistance in CRC organoid-stroma co-cultures” (2024).
